From patent US7560552B2, “Thiopyrimidine and isothiazolopyrimidine kinase inhibitors” (Abbott Laboratories, priority 2002, dated 2009)

| melting point | Structure (SMILES) |
| --- | --- |
| > 250 °C | CC(C)c1sc2ncnc(N)c2c1-c1ccc(NC(=O)c2ccccc2)cc1 [Example 8, N-[4-(4-amino-6-isopropylthieno[2,3-d]pyrimidin-5-yl)phenyl]benzamide] |
| 169 to 173 °C | Cc1ccc(NC(=O)Nc2ccc(-c3c(Cc4ccccc4)sc4ncnc(N)c34)cc2)cc1 [Example 9, N-[4-(4-amino-6-benzylthieno[2,3-d]pyrimidin-5-yl)phenyl]-N′-(4-methylphenyl)urea] |
| 245 to 248 °C | Cc1ccccc1NC(=O)Nc1ccc(-c2c(Cc3ccccc3)sc3ncnc(N)c23)cc1 [Example 11, N-[4-(4-amino-6-benzylthieno[2,3-d]pyrimidin-5-yl)phenyl]-N′-(2-methylphenyl)urea] |
| 233 to 234 °C | Cc1ccccc1NC(=O)Nc1ccc(-c2c(C(C)C)sc3ncnc(N)c23)cc1 [Example 12, N-[4-(4-amino-6-isopropylthieno[2,3-d]pyrimidin-5-yl)phenyl]-N′-(2-methylphenyl)urea] |
| 100 to 105 °C | Nc1ncnc2sc(Cc3ccccc3)c(-c3ccc(NS(=O)(=O)c4ccccc4)cc3)c12 [Example 13, N-[4-(4-amino-6-benzylthieno[2,3-d]pyrimidin-5-yl)phenyl]benzenesulfonamide] |
| 159 to 162 °C | Cc1ccccc1NC(=O)Nc1ccc(-c2c(CCO)sc3ncnc(N)c23)cc1 [Example 107, N-{4-[4-amino-6-(2-hydroxyethyl)thieno[2,3-d]pyrimidin-5-yl]phenyl}-N′-(2-methylphenyl)urea] |
| 128 to 132 °C | COCCc1sc2ncnc(N)c2c1-c1ccc(NC(=O)Nc2ccc(C)cc2)cc1 [Example 110, N-{4-[4-amino-6-(2-methoxyethyl)thieno[2,3-d]pyrimidin-5-yl]phenyl}-N′-(4-methylphenyl)urea] |
| 206 to 208 °C | COCCc1sc2ncnc(N)c2c1-c1ccc(NS(=O)(=O)c2ccccc2)cc1 [Example 111, N-{4-[4-amino-6-(2-methoxyethyl)thieno[2,3-d]pyrimidin-5-yl]phenyl}benzenesulfonamide] |
| 200 to 202 °C | COCCc1sc2ncnc(N)c2c1-c1ccc(NC(=O)Cc2cccc(C)c2)cc1 [Example 112, N-{4-[4-amino-6-(2-methoxyethyl)thieno[2,3-d]pyrimidin-5-yl]phenyl}-2-(3-methylphenyl)acetamide] |
| 200 to 202 °C | COCCc1sc2ncnc(N)c2c1-c1ccc(NC(=O)c2ccccc2)cc1 [Example 113, N-{4-[4-amino-6-(2-methoxyethyl)thieno[2,3-d]pyrimidin-5-yl]phenyl}benzamide] |
| 169 to 172 °C | Nc1ncnc2sc(Cc3cccnc3)c(-c3ccc(NC(=O)Nc4cccc(Cl)c4)cc3)c12 [Example 117, N-{4-[4-amino-6-(pyridin-3-ylmethyl)thieno[2,3-d]pyrimidin-5-yl]phenyl}-N′-(3-chlorophenyl)urea] |
| 217 to 219 °C | COCCc1sc2ncnc(N)c2c1-c1ccc(NC(=O)Nc2ccccc2C)cc1 [Example 137, N-{4-[4-amino-6-(2-methoxyethyl)thieno[2,3-d]pyrimidin-5-yl]phenyl}-N′-(2-methylphenyl)urea] |
| 155 to 158 °C | Nc1ncnc2sc(CCO)c(-c3ccc(NC(=O)Nc4cccc(C(F)(F)F)c4)cc3)c12 [Example 139, N-{4-[4-amino-6-(2-hydroxyethyl)thieno[2,3-d]pyrimidin-5-yl]phenyl}-N′-[3-(trifluoromethyl)phenyl]urea] |
| 209 to 211 °C | COCCc1sc2ncnc(N)c2c1-c1ccc(NC(=O)Nc2cc(C(F)(F)F)ccc2F)cc1 [Example 140, N-{4-[4-amino-6-(2-methoxyethyl)thieno[2,3-d]pyrimidin-5-yl]phenyl}-N′-[2-fluoro-5-(trifluoromethyl)phenyl]urea] |
| 162 to 166 °C | Nc1ncnc2sc(Cc3ccncc3)c(-c3ccc(NC(=O)Nc4cccc(C(F)(F)F)c4)cc3)c12 [Example 142, N-{4-[4-amino-6-(pyridin-4-ylmethyl)thieno[2,3-d]pyrimidin-5-yl]phenyl}-N′-[3-(trifluoromethyl)phenyl]urea] |
| 142 to 144 °C | Cc1cccc(CC(=O)Nc2ccc(-c3c(CCO)sc4ncnc(N)c34)cc2)c1 [Example 350, N-{4-[4-amino-6-(2-hydroxyethyl)thieno[2,3-d]pyrimidin-5-yl]phenyl}-2-(3-methylphenyl)acetamide] |
